Experiments:
NCI-60 cancer cell lines = assay: NCI-60 cytotoxicity assay, MGM; assay type: cell-based; details: Homo sapiens; entire panel of NCI-60 cancer cell lines; read-out: MGM (approximate average of GI50 values across the NCI-60 panel)
Procedure: (§1) The antiproliferative activities of the indenoisquinoline compounds are determined in the NCI-60 cancer cell lines of the National Cancer Institute Developmental Therapeutics Program (NCI-DTP). […] Cancer cells are incubated with the test compounds at five concentrations ranging from 100 μM to 10 nM for 48 h. After the treated cancer cells are stained with sulforhodamine B dye, the percentage growth is plotted as a function of the common logarithm of the tested compound concentration. […] The approximate average of GI50 values across the entire panel of NCI-60 cancer cell lines for each compound is recorded as the MGM value.
(§2) NCI-60 Cytotoxicity Assay. Compounds were submitted to the National Cancer Institute Developmental Therapeutic Program to determine their growth-inhibitory potentials in NCI-60 cell lines. All compounds satisfied the pre-screening proceeded into the 5-dose cell viability assay, in which cells were treated for 48 h at 5 dosages ranging from 100 μM to 10 nM.

HOP-62 (Lung) = assay: NCI-60 cytotoxicity assay; assay type: cell-based, human; details: Homo sapiens; HOP-62 lung; 48 h, sulforhodamine B; read-out: Comparative Cytotoxicity GI50, Lung HOP-62
Procedure: as §1, §2

UACC-62 (Melanoma) = assay: NCI-60 cytotoxicity assay; assay type: cell-based, human; details: Homo sapiens; UACC-62 melanoma; 48 h, sulforhodamine B; read-out: Comparative Cytotoxicity GI50, Melanoma UACC-62
Procedure: as §1, §2

MCF7 (Breast) = assay: NCI-60 cytotoxicity assay; assay type: cell-based, human; details: Homo sapiens; MCF7 breast; 48 h, sulforhodamine B; read-out: Comparative Cytotoxicity GI50, Breast MCE7
Procedure: as §1, §2

DU-145 (Prostate) = assay: NCI-60 cytotoxicity assay; assay type: cell-based, human; details: Homo sapiens; DU-145 prostate; 48 h, sulforhodamine B; read-out: Comparative Cytotoxicity GI50, Prostate DU-145
Procedure: as §1, §2

HCT-116 (Colon) = assay: NCI-60 cytotoxicity assay; assay type: cell-based, human; details: Homo sapiens; HCT-116 colon; 48 h, sulforhodamine B; read-out: Comparative Cytotoxicity GI50, Colon HCT-116
Procedure: as §1, §2

OVCAR-3 (Ovarian) = assay: NCI-60 cytotoxicity assay; assay type: cell-based, human; details: Homo sapiens; OVCAR-3 ovarian; 48 h, sulforhodamine B; read-out: Comparative Cytotoxicity GI50, Ovarian OVCAR-3
Procedure: as §1, §2

SN12C (Renal) = assay: NCI-60 cytotoxicity assay; assay type: cell-based, human; details: Homo sapiens; SN12C renal; 48 h, sulforhodamine B; read-out: Comparative Cytotoxicity GI50, Renal SN12C
Procedure: as §1, §2

SF-539 (CNS) = assay: NCI-60 cytotoxicity assay; assay type: cell-based; details: Homo sapiens; SF-539 CNS; 48 h, sulforhodamine B; read-out: Comparative Cytotoxicity GI50, CNS SF-539
Procedure: as §1, §2

Caco-2 cells = assay: Caco-2 permeability; assay type: in vitro ADME; details: for Efflux Ratio / Recovery (%)AP-BL / Recovery (%)BL-AP: Caco-2; for Papp (A→B) / Papp (B→A): Caco-2, 5 μM, 2 h
Procedure: Caco-2 Permeability Studies. The Caco-2 plate was removed from the incubator and washed twice with pre-warmed HBSS (10 mM HEPES, pH 7.4), and then incubated at 37° C. for 30 min. The stock solutions of controls compounds were diluted in DMSO to get 1 mM solutions and then diluted with HBSS (10 mM HEPES, pH 7.4) to get 5 μM working solutions. The stock solutions of the test compounds were diluted in DMSO to get 1 mM solutions and then diluted with HBSS (10 mM HEPES, pH 7.4) to get 5 μM working solutions. The final concentration of DMSO in the incubation system was 0.5%. To determine the rate of drug transport in the apical to basolateral direction, 75 μL of 5 μM working solutions of test compounds was added to the Transwell insert (apical compartment) and the wells in the receiver plate (basolateral compartment) were filled with 235 μL of HBSS (10 mM HEPES, pH 7.4). To determine the rate of drug transport in the basolateral to apical direction, 235 μL of 5 μM working solutions of test compounds were to the receiver plate wells (basolateral compartment) and then the Transwell inserts (apical compartment) were filled with 75 μL of HBSS (10 mM HEPES, pH 7.4). Time 0 samples were prepared by transferring 50 μL of 5 μM working solution to wells of the 96-deepwell plate, followed by the addition of 200 μL cold methanol containing appropriate internal standards (IS). The plates were incubated at 37° C. for 2 h. […] An aliquot of 100 μL of the supernatant was mixed with an appropriate volume of ultra-pure water before LC-MS/MS analysis. To determine the Lucifer Yellow leakage after 2 h transport period, stock solution of Lucifer yellow was prepared in ultra-pure water and diluted with HBSS (10 mM HEPES, pH 7.4) to reach the final concentration of 100 μM and then 100 μL of the Lucifer yellow solution was added to each Transwell insert (apical compartment), followed by filling the wells in the receiver plate (basolateral compartment) with 300 μL of HBSS (10 mM HEPES, pH 7.4). The plates were incubated at 37° C. for 30 minutes. Samples (80 μL) were removed directly from the apical and basolateral wells (using the basolateral access holes) and transferred to wells of new 96 wells plates.

[1] = Brain penetration and plasma/brain pharmacokinetics in combination with Temodar or Lynparza
Procedure: A similar analysis was performed with LMP744 and LMP400 in combination with Temodar and Lynparza.

[2] = Lynparza 100 mg/kg PO + LMP400 10 mg/kg IV, 0.5 h
[3] = Lynparza 100 mg/kg PO + LMP400 10 mg/kg IV, 1 h
[4] = Lynparza 100 mg/kg PO + LMP400 10 mg/kg IV, 2 h
[5] = Lynparza 100 mg/kg PO + LMP400 10 mg/kg IV, 4 h
[6] = Lynparza 100 mg/kg PO + LMP400 10 mg/kg IV, 8 h
[7] = Lynparza 100 mg/kg PO + LMP400 10 mg/kg IV, 24 h
[8] = Lynparza 100 mg/kg PO + LMP744 10 mg/kg IV, 0.25 h
[9] = Lynparza 100 mg/kg PO + LMP744 10 mg/kg IV, 0.5 h
[10] = Lynparza 100 mg/kg PO + LMP744 10 mg/kg IV, 1 h
[11] = Lynparza 100 mg/kg PO + LMP744 10 mg/kg IV, 2 h
[12] = Lynparza 100 mg/kg PO + LMP744 10 mg/kg IV, 4 h
[13] = Lynparza 100 mg/kg PO + LMP744 10 mg/kg IV, 8 h
[14] = Lynparza 100 mg/kg PO + LMP744 10 mg/kg IV, 24 h
[15] = Temador 125 mg/kg PO + LMP400 10 mg/kg IV, 1 h
[16] = Temador 125 mg/kg PO + LMP400 10 mg/kg IV, 2 h
[17] = Temador 125 mg/kg PO + LMP400 10 mg/kg IV, 4 h
[18] = Temador 125 mg/kg PO + LMP400 10 mg/kg IV, 8 h
[19] = Temador 125 mg/kg PO + LMP400 10 mg/kg IV, 24 h
[20] = Temador 125 mg/kg PO + LMP744 20 mg/kg IV, 0.25 h
[21] = Temador 125 mg/kg PO + LMP744 20 mg/kg IV, 0.5 h
[22] = Temador 125 mg/kg PO + LMP744 20 mg/kg IV, 1 h
[23] = Temador 125 mg/kg PO + LMP744 20 mg/kg IV, 2 h
[24] = Temador 125 mg/kg PO + LMP744 20 mg/kg IV, 4 h
[25] = Temador 125 mg/kg PO + LMP744 20 mg/kg IV, 8 h
[26] = Temador 125 mg/kg PO + LMP744 20 mg/kg IV, 24 h

COc1cc2c3c(n(CCCNCC4CC4)c(=O)c2cc1OC)-c1cc2c(cc1C3=O)OCO2 [A1]
GI50 (NCI-60 cancer cell lines): 1320 nM
GI50 (HOP-62 (Lung)): 350 nM
GI50 (UACC-62 (Melanoma)): 2860 nM
GI50 (MCF7 (Breast)): 95 nM
GI50 (DU-145 (Prostate)): 760 nM
GI50 (HCT-116 (Colon)): 1140 nM
GI50 (OVCAR-3 (Ovarian)): 1420 nM
GI50 (SN12C (Renal)): 1370 nM
GI50 (SF-539 (CNS)): 760 nM

COc1cc2c3c(n(CCCNC4CCC4)c(=O)c2cc1OC)-c1cc2c(cc1C3=O)OCO2 [A2]
GI50 (NCI-60 cancer cell lines): 870 nM
GI50 (HOP-62 (Lung)): 220 nM
GI50 (UACC-62 (Melanoma)): 1400 nM
GI50 (MCF7 (Breast)): 57 nM
GI50 (DU-145 (Prostate)): 790 nM
GI50 (HCT-116 (Colon)): 900 nM
GI50 (OVCAR-3 (Ovarian)): 1380 nM
GI50 (SN12C (Renal)): 1440 nM
GI50 (SF-539 (CNS)): 1050 nM

C[C@H]1O[C@@H](O[C@H]2[C@@H](O)C[C@H](O[C@H]3[C@@H](O)C[C@H](O[C@H]4CC[C@@]5(C)[C@H](CC[C@@H]6[C@@H]5C[C@@H](O)[C@]5(C)[C@@H](C7=CC(=O)OC7)CC[C@]65O)C4)O[C@@H]3C)O[C@@H]2C)C[C@H](O)[C@@H]1O [Digoxin]
Efflux Ratio (Caco-2 cells): 25.25
Recovery (%)AP-BL (Caco-2 cells): 88.64%
Recovery (%)BL-AP (Caco-2 cells): 106.70%
Papp (A→B) (Caco-2 cells): 0.74 10^−6, cm/s
Papp (B→A) (Caco-2 cells): 18.71 10^−6, cm/s

O=C(c1cc(Cc2n[nH]c(=O)c3ccccc23)ccc1F)N1CCN(C(=O)C2CC2)CC1 [Lynparza]
Brain Conc ([1]; Lynparza 100 mg/kg PO + LMP400 10 mg/kg IV, 0.25 h): 0.0131 ± 0.00699 µM
Brain Conc [1, 2]: 0.03336 ± 0.01887 µM
Plasma Conc [1, 2]: 1.384 ± 0.929 µM
Brain Conc [1, 3]: 0.05003 ± 0.00979 µM
Plasma Conc [1, 3]: 2.644 ± 0.762 µM
Brain Conc [1, 4]: 0.03044 ± 0.01589 µM
Plasma Conc [1, 4]: 1.637 ± 1.051 µM
Brain Conc [1, 5]: 0.01839 ± 0.00859 µM
Plasma Conc [1, 5]: 0.755 ± 0.46 µM
Brain Conc [1, 6]: BLOQ
Plasma Conc [1, 6]: 0.166 ± 0.208 µM
Brain Conc [1, 7]: BLOQ
Plasma Conc [1, 7]: BLOQ
Brain Conc [1, 8]: BLOQ
Plasma Conc [1, 8]: 0.345 ± 0.101 µM
Brain Conc [1, 9]: 0.0121 ± 0.00053 µM
Brain/Plasma Conc Ratio [1, 9]: 0.02
Plasma Conc [1, 9]: 0.555 ± 0.0934 µM
Brain Conc [1, 10]: 0.0141 ± 0.0073 µM
Brain/Plasma Conc Ratio [1, 10]: 0.01
Plasma Conc [1, 10]: 0.961 ± 0.189 µM
Brain Conc [1, 11]: 0.0449 ± 0.02008 µM
Plasma Conc [1, 11]: 1.61 ± 0.968 µM
Brain Conc [1, 12]: 0.0254 ± 0.00652 µM
Plasma Conc [1, 12]: 1.11 ± 0.25 µM
Brain Conc [1, 13]: BLOQ
Plasma Conc [1, 13]: 0.314 ± 0.185 µM
Brain Conc [1, 14]: BLOQ
Plasma Conc [1, 14]: BLOQ
concentration at 0.25 h ([1]; mouse, plasma, oral, Plasma Conc, Lynparza 100 mg/kg PO + LMP400 10 mg/kg IV, 0.25 h): 0.506 ± 0.423 µM

COc1cc2nc(N3CCN(C(=O)c4ccco4)CC3)nc(N)c2cc1OC [Prazosin]
Efflux Ratio (Caco-2 cells): 3.39
Recovery (%)AP-BL (Caco-2 cells): 79.64%
Recovery (%)BL-AP (Caco-2 cells): 94.99%
Papp (A→B) (Caco-2 cells): 9.28 10^−6, cm/s
Papp (B→A) (Caco-2 cells): 31.47 10^−6, cm/s

CC(C)NCC(O)COc1cccc2ccccc12 (centres unmarked) [Propranolol]
Efflux Ratio (Caco-2 cells): 0.70
Recovery (%)AP-BL (Caco-2 cells): 80.74%
Recovery (%)BL-AP (Caco-2 cells): 92.73%
Papp (A→B) (Caco-2 cells): 25.34 10^−6, cm/s
Papp (B→A) (Caco-2 cells): 17.63 10^−6, cm/s

Cn1nnc2c(C(N)=O)ncn2c1=O [Temadar]
Plasma Conc ([1]; Temador 125 mg/kg PO + LMP400 10 mg/kg IV, 0.25 h): 311.591 ± 40.73 µM
Brain Conc [1, 15]: 102.567 ± 16.241 µM
Brain/Plasma Conc Ratio [1, 15]: 0.50
Brain/Plasma Conc Ratio [1, 16]: 0.56
Plasma Conc [1, 16]: 80.639 ± 5.808 µM
Brain Conc [1, 17]: 4.739 ± 0.585 µM
Plasma Conc [1, 17]: 10.345 ± 0.724 µM
Brain Conc [1, 18]: 1.236 ± 0.654 µM
Brain/Plasma Conc Ratio [1, 18]: 0.38
Plasma Conc [1, 18]: 3.295 ± 1.528 µM
Brain Conc [1, 19]: 0.122 ± 0.004 µM
Brain/Plasma Conc Ratio [1, 19]: 0.01
Plasma Conc [1, 19]: 10.009 ± 5.943 µM
Brain Conc [1, 20]: 123.222 ± 49.748 µM
Brain/Plasma Conc Ratio [1, 20]: 0.33
Plasma Conc [1, 20]: 376.314 ± 182.744 µM
Brain Conc [1, 21]: 83.539 ± 43.505 µM
Brain/Plasma Conc Ratio [1, 21]: 0.23
Plasma Conc [1, 21]: 370.863 ± 119.965 µM
Brain/Plasma Conc Ratio [1, 22]: 0.46
Plasma Conc [1, 22]: 357.779 ± 86.447 µM
Brain Conc [1, 23]: 96.544 ± 15.254 µM
Brain/Plasma Conc Ratio [1, 23]: 0.15
Brain Conc [1, 24]: 12.75 ± 2.849 µM
Brain/Plasma Conc Ratio [1, 24]: 0.47
Plasma Conc [1, 24]: 27.155 ± 4.732 µM
Brain Conc [1, 25]: 5.765 ± 3.855 µM
Brain/Plasma Conc Ratio [1, 25]: 0.57
Plasma Conc [1, 25]: 10.048 ± 6.715 µM
Brain Conc [1, 26]: 0.914 ± 0.532 µM
Brain/Plasma Conc Ratio [1, 26]: 0.60
concentration at 0.25 h ([1]; mouse, brain, oral, Brain Conc, Temador 125 mg/kg PO + LMP400 10 mg/kg IV, 0.25 h): 86.6 ± 10.4 µM
concentration at 0.5 h ([1]; mouse, brain, oral, Brain Conc, Temador 125 mg/kg PO + LMP400 10 mg/kg IV, 0.5 h): 47.4 ± 24.5 µM
concentration at 1 h ([1]; mouse, brain, oral, Brain Conc, Temador 125 mg/kg PO + LMP744 20 mg/kg IV, 1 h): 154 ± 38.8 µM
concentration at 0.5 h ([1]; mouse, plasma, oral, Plasma Conc, Temador 125 mg/kg PO + LMP400 10 mg/kg IV, 0.5 h): 389 ± 66 µM
concentration at 1 h ([1]; mouse, plasma, oral, Plasma Conc, Temador 125 mg/kg PO + LMP400 10 mg/kg IV, 1 h): 205 ± 27.3 µM
concentration at 2 h ([1]; mouse, plasma, oral, Plasma Conc, Temador 125 mg/kg PO + LMP744 20 mg/kg IV, 2 h): 552 ± 309 µM
concentration at 24 h ([1]; mouse, plasma, oral, Plasma Conc, Temador 125 mg/kg PO + LMP744 20 mg/kg IV, 24 h): 1.58 ± 0.509 µM
